The data set in a line: Thermal denaturation of trimeric coiled coil peptides by CD thermal scan (signal at 222 nm versus temperature, curve fitting). The following applies: core mutants at positions 3a and 3d of the reference peptide with glutamine at 2a; Figure 9. It is filed as physicochemical. How it is done: The said synthesized peptide was dissolved at a concentration of 292 microM in 20 mM phosphate buffer (PBS), 150 mM NaCl, pH 7.2. The CD spectra were measured between […], at 5 and 90 degrees Celsius (Figure 3). The spectrum at 5 degrees Celsius was indicative of a high alpha-helical secondary structure content, in agreement with the expectation that all heptad regions, but not all of the flanking residues, would assemble as alpha-helical coiled coils.
To analyse whether the temperature-induced transition between helical and nonhelical states was reversible, a forward (up) and backward (down) thermal scan was performed on the same sample, by recording the CD signal at […] as a function of temperature at a scanning rate of about 1 degree Celsius per minute (Figure 4). It was observed that the up and down scans almost perfectly coincided, thereby confirming the quantitative unfolding and refolding of the peptides in the sample.
It was further analyzed whether the thermal unfolding curve of Figure 4 conformed to the thermodynamic equations describing the equilibrium folding/unfolding reaction between three molecules free (monomeric) peptide and one entity of folded (trimeric) complex. This reaction is generally written as 3 peptide <=> peptide3 wherein "<=>" refers to a chemical equilibrium, "peptide" to a monomeric peptide in solution and "peptide3" to a trimeric entity in the folded (assembled, associated) state. This thermal unfolding curve was fitted to the theoretic equations: θ(T) = θM (T) + (θT(T)-θM(T))(1+root(F(-(1)/(2)+sqrt((1)/(4) + (F)/(27))), 3)+root(F(-(1)/(2)-sqrt((1)/(4) + (F)/(27))), 3)) [formula] wherein F = (exp(-(ΔHt)/(RT)(1-T/T1)-(ΔCp)/(RT)(T-Tt-Tln(T/Tt))))/(4) [formula] and T≡ the temperature, in degrees Kelvin, of the sample θ(T)≡ the CD-signal [theta]222 nm, in deg cm^2 dmol^-1, as a function of T θM(T)≡ the CD-signal for 100% free (monomeric) peptide as a function of T θT(T) ≡ the CD-signal for 100% associated (trimeric) peptide as a function of T Tt ≡ the transition temperature, where 50% of the total peptide concentration is associated ΔHt ≡ the enthalpy difference, in kJ per mole peptide, between mono- and trimeric states ΔCp ≡ the heat capacity difference, in J mol^-1 K^-1, between mono- and trimeric states R ≡ the ideal (universal) gas constant ≡ 8.31 J mol^-1 K^-1
The global CD signal was somewhat lower than expected, which could be due to an instrumental deviation, an error in the concentration determination, a lower purity, or a lower than expected alpha-helical content. Nevertheless, the main goal of this experiment was to examine the effect of the glutamine-to-isoleucine mutant on the stability of the complex. […] The estimated transition temperature was around 97 degrees Celsius, although the latter was difficult to determine because of incompleteness of the transition.
All ten peptides were analyzed by thermal CD scanning as in Examples 3 and 4. Fitting of the thermal denaturation curves, as described in Example 3, gave the corresponding transition temperatures shown in Figure 9. […]

Peptide text beside a SMILES is read from it.

Regarding `CC[C@H](C)[C@H](NC(=O)[C@H](C)NC(=O)[C@H](C)NC(=O)[C@H](CCC(N)=O)NC(=O)[C@H](CCC(N)=O)NC(=O)[C@H](CCCCN)NC(=O)[C@H](CCC(N)=O)NC(=O)[C@@H](NC(=O)[C@H](CCC(=O)O)NC(=O)[C@H](CCC(=O)O)NC(=O)[C@@H](NC(=O)[C@H](CO)NC(=O)[C@H](CCSC)NC(C)=O)[C@@H](C)CC)[C@@H](C)CC)C(=O)N[C@@H](CCC(N)=O)C(=O)N[C@@H](CCCCN)C(=O)N[C@@H](CCC(N)=O)C(=O)N[C@@H](C)C(=O)N[C@@H](C)C(=O)N[C@@H](C)C(=O)N[C@H](C(=O)N[C@@H](CCC(N)=O)C(=O)N[C@@H](CCCCN)C(=O)N[C@@H](CCC(N)=O)C(=O)N[C@H](C(=O)N[C@@H](Cc1ccc(O)cc1)C(=O)N[C@@H](CCCNC(=N)N)C(=O)N[C@@H](CCSC)C(=O)N[C@H](C(=O)N1CCC[C@H]1C(N)=O)[C@@H](C)O)[C@@H](C)CC)[C@@H](C)CC` [3aA] (Ac-MSIEEIQKQQAAIQKQAAAIQKQIYRMTP-NH2), the “effect of core substitution on stability (transition temperature) compared to the reference peptide comprising isoleucine at positions 3a and 3d” value is reported as “disruptive”. `CC[C@H](C)[C@H](NC(=O)[C@H](C)NC(=O)[C@H](C)NC(=O)[C@H](CCC(N)=O)NC(=O)[C@H](CCC(N)=O)NC(=O)[C@H](CCCCN)NC(=O)[C@H](CCC(N)=O)NC(=O)[C@@H](NC(=O)[C@H](CCC(=O)O)NC(=O)[C@H](CCC(=O)O)NC(=O)[C@@H](NC(=O)[C@H](CO)NC(=O)[C@H](CCSC)NC(C)=O)[C@@H](C)CC)[C@@H](C)CC)C(=O)N[C@@H](CCC(N)=O)C(=O)N[C@@H](CCCCN)C(=O)N[C@@H](CCC(N)=O)C(=O)N[C@@H](CC(C)C)C(=O)N[C@@H](C)C(=O)N[C@@H](C)C(=O)N[C@H](C(=O)N[C@@H](CCC(N)=O)C(=O)N[C@@H](CCCCN)C(=O)N[C@@H](CCC(N)=O)C(=O)N[C@H](C(=O)N[C@@H](Cc1ccc(O)cc1)C(=O)N[C@@H](CCCNC(=N)N)C(=O)N[C@@H](CCSC)C(=O)N[C@H](C(=O)N1CCC[C@H]1C(N)=O)[C@@H](C)O)[C@@H](C)CC)[C@@H](C)CC` [3aL] (Ac-MSIEEIQKQQAAIQKQLAAIQKQIYRMTP-NH2): the “effect of core substitution on stability (transition temperature) compared to the reference peptide comprising isoleucine at positions 3a and 3d” value was “slightly stabilizing effect”. For `CC[C@H](C)[C@H](NC(=O)[C@H](C)NC(=O)[C@H](C)NC(=O)[C@H](CCC(N)=O)NC(=O)[C@H](CCC(N)=O)NC(=O)[C@H](CCCCN)NC(=O)[C@H](CCC(N)=O)NC(=O)[C@@H](NC(=O)[C@H](CCC(=O)O)NC(=O)[C@H](CCC(=O)O)NC(=O)[C@@H](NC(=O)[C@H](CO)NC(=O)[C@H](CCSC)NC(C)=O)[C@@H](C)CC)[C@@H](C)CC)C(=O)N[C@@H](CCC(N)=O)C(=O)N[C@@H](CCCCN)C(=O)N[C@@H](CCC(N)=O)C(=O)N[C@@H](CCC(N)=O)C(=O)N[C@@H](C)C(=O)N[C@@H](C)C(=O)N[C@H](C(=O)N[C@@H](CCC(N)=O)C(=O)N[C@@H](CCCCN)C(=O)N[C@@H](CCC(N)=O)C(=O)N[C@H](C(=O)N[C@@H](Cc1ccc(O)cc1)C(=O)N[C@@H](CCCNC(=N)N)C(=O)N[C@@H](CCSC)C(=O)N[C@H](C(=O)N1CCC[C@H]1C(N)=O)[C@@H](C)O)[C@@H](C)CC)[C@@H](C)CC` [3aQ] (Ac-MSIEEIQKQQAAIQKQQAAIQKQIYRMTP-NH2) the value was “relatively strong”; for `CC[C@H](C)[C@H](NC(=O)[C@H](C)NC(=O)[C@H](C)NC(=O)[C@H](CCC(N)=O)NC(=O)[C@H](CCC(N)=O)NC(=O)[C@H](CCCCN)NC(=O)[C@H](CCC(N)=O)NC(=O)[C@@H](NC(=O)[C@H](CCC(=O)O)NC(=O)[C@H](CCC(=O)O)NC(=O)[C@@H](NC(=O)[C@H](CO)NC(=O)[C@H](CCSC)NC(C)=O)[C@@H](C)CC)[C@@H](C)CC)C(=O)N[C@@H](CCC(N)=O)C(=O)N[C@@H](CCCCN)C(=O)N[C@@H](CCC(N)=O)C(=O)N[C@@H](CO)C(=O)N[C@@H](C)C(=O)N[C@@H](C)C(=O)N[C@H](C(=O)N[C@@H](CCC(N)=O)C(=O)N[C@@H](CCCCN)C(=O)N[C@@H](CCC(N)=O)C(=O)N[C@H](C(=O)N[C@@H](Cc1ccc(O)cc1)C(=O)N[C@@H](CCCNC(=N)N)C(=O)N[C@@H](CCSC)C(=O)N[C@H](C(=O)N1CCC[C@H]1C(N)=O)[C@@H](C)O)[C@@H](C)CC)[C@@H](C)CC` [3aS] (Ac-MSIEEIQKQQAAIQKQSAAIQKQIYRMTP-NH2), “disruptive”.

On to `CC[C@H](C)[C@H](NC(=O)[C@H](C)NC(=O)[C@H](C)NC(=O)[C@H](CCC(N)=O)NC(=O)[C@H](CCC(N)=O)NC(=O)[C@H](CCCCN)NC(=O)[C@H](CCC(N)=O)NC(=O)[C@@H](NC(=O)[C@H](CCC(=O)O)NC(=O)[C@H](CCC(=O)O)NC(=O)[C@@H](NC(=O)[C@H](CO)NC(=O)[C@H](CCSC)NC(C)=O)[C@@H](C)CC)[C@@H](C)CC)C(=O)N[C@@H](CCC(N)=O)C(=O)N[C@@H](CCCCN)C(=O)N[C@@H](CCC(N)=O)C(=O)N[C@H](C(=O)N[C@@H](C)C(=O)N[C@@H](C)C(=O)N[C@H](C(=O)N[C@@H](CCC(N)=O)C(=O)N[C@@H](CCCCN)C(=O)N[C@@H](CCC(N)=O)C(=O)N[C@H](C(=O)N[C@@H](Cc1ccc(O)cc1)C(=O)N[C@@H](CCCNC(=N)N)C(=O)N[C@@H](CCSC)C(=O)N[C@H](C(=O)N1CCC[C@H]1C(N)=O)[C@@H](C)O)[C@@H](C)CC)[C@@H](C)CC)C(C)C` [3aV] (Ac-MSIEEIQKQQAAIQKQVAAIQKQIYRMTP-NH2), for which the “effect of core substitution on stability (transition temperature) compared to the reference peptide comprising isoleucine at positions 3a and 3d” value is “moderately”. Next, `CC[C@H](C)[C@H](NC(=O)[C@H](C)NC(=O)[C@H](C)NC(=O)[C@H](CCC(N)=O)NC(=O)[C@H](CCC(N)=O)NC(=O)[C@H](CCCCN)NC(=O)[C@H](CCC(N)=O)NC(=O)[C@@H](NC(=O)[C@H](CCC(=O)O)NC(=O)[C@H](CCC(=O)O)NC(=O)[C@@H](NC(=O)[C@H](CO)NC(=O)[C@H](CCSC)NC(C)=O)[C@@H](C)CC)[C@@H](C)CC)C(=O)N[C@@H](CCC(N)=O)C(=O)N[C@@H](CCCCN)C(=O)N[C@@H](CCC(N)=O)C(=O)N[C@H](C(=O)N[C@@H](C)C(=O)N[C@@H](C)C(=O)N[C@@H](C)C(=O)N[C@@H](CCC(N)=O)C(=O)N[C@@H](CCCCN)C(=O)N[C@@H](CCC(N)=O)C(=O)N[C@H](C(=O)N[C@@H](Cc1ccc(O)cc1)C(=O)N[C@@H](CCCNC(=N)N)C(=O)N[C@@H](CCSC)C(=O)N[C@H](C(=O)N1CCC[C@H]1C(N)=O)[C@@H](C)O)[C@@H](C)CC)[C@@H](C)CC` [3dA] (Ac-MSIEEIQKQQAAIQKQIAAAQKQIYRMTP-NH2): “relatively strong”; `CC[C@H](C)[C@H](NC(=O)[C@H](C)NC(=O)[C@H](C)NC(=O)[C@H](CCC(N)=O)NC(=O)[C@H](CCC(N)=O)NC(=O)[C@H](CCCCN)NC(=O)[C@H](CCC(N)=O)NC(=O)[C@@H](NC(=O)[C@H](CCC(=O)O)NC(=O)[C@H](CCC(=O)O)NC(=O)[C@@H](NC(=O)[C@H](CO)NC(=O)[C@H](CCSC)NC(C)=O)[C@@H](C)CC)[C@@H](C)CC)C(=O)N[C@@H](CCC(N)=O)C(=O)N[C@@H](CCCCN)C(=O)N[C@@H](CCC(N)=O)C(=O)N[C@H](C(=O)N[C@@H](C)C(=O)N[C@@H](C)C(=O)N[C@@H](CC(C)C)C(=O)N[C@@H](CCC(N)=O)C(=O)N[C@@H](CCCCN)C(=O)N[C@@H](CCC(N)=O)C(=O)N[C@H](C(=O)N[C@@H](Cc1ccc(O)cc1)C(=O)N[C@@H](CCCNC(=N)N)C(=O)N[C@@H](CCSC)C(=O)N[C@H](C(=O)N1CCC[C@H]1C(N)=O)[C@@H](C)O)[C@@H](C)CC)[C@@H](C)CC` [3dL] (Ac-MSIEEIQKQQAAIQKQIAALQKQIYRMTP-NH2): “slightly stabilizing effect”.

The values above are taken from EP2161278B1, “Single-chain coiled coil scaffold” (Complix N.V., priority 2008, dated 2010).
